From ChEMBL document CHEMBL1212924 (J Med Chem, 2010)
Activity calls are given as the source filed them. The rule behind the calls is not given here.

Columns and labels:
in vitro = conditions: human, liver microsomes
Description: Half life in human liver microsome at 2 mg/mL

[1] = Half life in rat at 1 mg/kg, iv and 2 mg/kg, po; type: ADME, organism-based; conditions: in vivo
[2] = Clearance in rat at 1 mg/kg, iv and 2 mg/kg, po; type: ADME, organism-based; conditions: in vivo
[3] = Volume of distribution in rat at 1 mg/kg, iv and 2 mg/kg, po; type: ADME, organism-based; conditions: in vivo
[4] = Oral bioavailability in rat at 2 mg/kg; type: ADME, organism-based; conditions: in vivo
[5] = biological target: Rho-associated protein kinase 2 (Homo sapiens, UniProt O75116)
Rho-associated protein kinase 2, sequence (O75116 whole entry): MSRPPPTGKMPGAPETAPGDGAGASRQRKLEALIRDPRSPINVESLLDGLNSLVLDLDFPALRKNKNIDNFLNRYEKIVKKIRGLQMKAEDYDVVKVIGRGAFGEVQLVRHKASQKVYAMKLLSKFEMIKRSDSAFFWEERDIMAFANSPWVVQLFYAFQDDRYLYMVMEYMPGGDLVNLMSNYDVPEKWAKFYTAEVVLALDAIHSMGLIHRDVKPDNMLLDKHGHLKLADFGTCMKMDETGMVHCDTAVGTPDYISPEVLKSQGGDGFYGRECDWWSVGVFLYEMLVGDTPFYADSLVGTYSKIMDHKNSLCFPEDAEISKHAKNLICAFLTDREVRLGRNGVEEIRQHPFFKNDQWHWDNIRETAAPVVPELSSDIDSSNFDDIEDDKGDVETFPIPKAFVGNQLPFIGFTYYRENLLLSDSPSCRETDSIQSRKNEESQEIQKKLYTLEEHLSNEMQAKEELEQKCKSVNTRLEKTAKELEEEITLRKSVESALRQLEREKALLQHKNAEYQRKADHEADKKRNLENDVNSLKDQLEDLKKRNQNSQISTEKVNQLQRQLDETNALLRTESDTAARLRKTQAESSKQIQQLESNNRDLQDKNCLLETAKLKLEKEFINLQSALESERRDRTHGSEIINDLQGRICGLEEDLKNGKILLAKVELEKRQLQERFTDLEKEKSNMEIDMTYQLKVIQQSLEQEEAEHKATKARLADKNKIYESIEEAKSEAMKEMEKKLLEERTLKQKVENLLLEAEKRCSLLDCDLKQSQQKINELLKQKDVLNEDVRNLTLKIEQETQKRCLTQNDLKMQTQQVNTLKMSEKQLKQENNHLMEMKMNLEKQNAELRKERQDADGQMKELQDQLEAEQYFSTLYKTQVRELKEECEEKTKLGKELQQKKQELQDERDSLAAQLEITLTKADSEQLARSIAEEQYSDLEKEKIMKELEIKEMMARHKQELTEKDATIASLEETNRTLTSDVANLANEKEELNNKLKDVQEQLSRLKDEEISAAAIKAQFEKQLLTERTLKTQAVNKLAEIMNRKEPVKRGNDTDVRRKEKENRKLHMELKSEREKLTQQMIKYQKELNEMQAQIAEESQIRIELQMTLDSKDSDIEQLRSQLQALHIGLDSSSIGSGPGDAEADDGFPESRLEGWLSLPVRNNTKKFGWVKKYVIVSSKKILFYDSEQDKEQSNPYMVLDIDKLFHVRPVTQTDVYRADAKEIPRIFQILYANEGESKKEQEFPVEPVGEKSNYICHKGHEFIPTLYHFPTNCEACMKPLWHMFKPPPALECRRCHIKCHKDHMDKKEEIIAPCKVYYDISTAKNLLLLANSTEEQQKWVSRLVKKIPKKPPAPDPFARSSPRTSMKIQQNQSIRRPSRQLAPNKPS

[6] = biological target: Serine/threonine-protein kinase MRCK beta (Homo sapiens) (UniProt Q9Y5S2); experiment: Inhibition of MRCKbeta at 3 uM
[7] = biological target: Phosphatidylinositol 4,5-bisphosphate 3-kinase catalytic subunit beta isoform (Homo sapiens) (UniProt P42338); experiment: Inhibition of PI3Kbeta at 3 uM
CYP3A4 = CYP3A4 (Homo sapiens, UniProt P08684); experiment: Inhibition of CYP3A4 at 10 uM; type: ADME
CYP3A4, sequence (P08684 whole entry): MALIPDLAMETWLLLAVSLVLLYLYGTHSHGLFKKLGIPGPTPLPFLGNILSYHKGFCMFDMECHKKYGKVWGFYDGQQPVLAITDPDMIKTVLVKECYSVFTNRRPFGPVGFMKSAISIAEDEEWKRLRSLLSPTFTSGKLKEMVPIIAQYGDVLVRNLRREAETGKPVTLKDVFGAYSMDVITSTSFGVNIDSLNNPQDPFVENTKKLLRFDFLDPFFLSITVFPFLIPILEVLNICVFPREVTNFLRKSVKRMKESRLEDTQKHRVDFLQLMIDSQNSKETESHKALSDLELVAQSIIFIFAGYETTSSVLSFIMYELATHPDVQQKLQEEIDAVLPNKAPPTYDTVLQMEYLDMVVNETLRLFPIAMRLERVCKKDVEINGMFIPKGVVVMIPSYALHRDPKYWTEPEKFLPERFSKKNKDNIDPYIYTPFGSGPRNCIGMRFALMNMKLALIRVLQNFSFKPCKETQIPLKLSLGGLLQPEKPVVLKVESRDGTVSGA

Rattus norvegicus = experiment: Reduction in intraocular pressure in Brown norway rat at 40 ug administered as drops in eye after 2 hrs; type: functional, organism-based
CYP2C9 = CYP2C9 (Homo sapiens, UniProt P11712); experiment: Inhibition of CYP2C9 at 10 uM; type: ADME
CYP2C9, sequence (P11712 whole entry): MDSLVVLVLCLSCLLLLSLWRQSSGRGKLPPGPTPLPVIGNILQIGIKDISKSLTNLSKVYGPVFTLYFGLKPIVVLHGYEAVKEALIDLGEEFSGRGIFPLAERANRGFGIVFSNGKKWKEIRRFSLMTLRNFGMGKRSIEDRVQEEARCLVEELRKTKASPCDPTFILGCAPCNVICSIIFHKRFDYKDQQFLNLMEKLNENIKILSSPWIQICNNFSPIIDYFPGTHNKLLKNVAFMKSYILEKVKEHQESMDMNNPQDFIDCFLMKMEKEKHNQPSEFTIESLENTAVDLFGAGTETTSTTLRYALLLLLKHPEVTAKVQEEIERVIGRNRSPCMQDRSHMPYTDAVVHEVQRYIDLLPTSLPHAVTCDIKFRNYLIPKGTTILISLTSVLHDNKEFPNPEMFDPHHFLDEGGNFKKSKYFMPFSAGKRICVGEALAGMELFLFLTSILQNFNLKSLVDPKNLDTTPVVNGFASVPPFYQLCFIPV

[8] = Inhibition of p38
[9] = biological target: Serine/threonine-protein kinase 38 (Homo sapiens) (UniProt Q15208); experiment: Inhibition of NDR1 at 3 uM
[10] = biological target: Dual specificity protein kinase CLK1 (Homo sapiens) (UniProt P49759); experiment: Inhibition of CLK1 at 3 uM
[11] = biological target: Rho-associated protein kinase 1 (Homo sapiens, UniProt Q13464)
Rho-associated protein kinase 1, sequence (Q13464 whole entry): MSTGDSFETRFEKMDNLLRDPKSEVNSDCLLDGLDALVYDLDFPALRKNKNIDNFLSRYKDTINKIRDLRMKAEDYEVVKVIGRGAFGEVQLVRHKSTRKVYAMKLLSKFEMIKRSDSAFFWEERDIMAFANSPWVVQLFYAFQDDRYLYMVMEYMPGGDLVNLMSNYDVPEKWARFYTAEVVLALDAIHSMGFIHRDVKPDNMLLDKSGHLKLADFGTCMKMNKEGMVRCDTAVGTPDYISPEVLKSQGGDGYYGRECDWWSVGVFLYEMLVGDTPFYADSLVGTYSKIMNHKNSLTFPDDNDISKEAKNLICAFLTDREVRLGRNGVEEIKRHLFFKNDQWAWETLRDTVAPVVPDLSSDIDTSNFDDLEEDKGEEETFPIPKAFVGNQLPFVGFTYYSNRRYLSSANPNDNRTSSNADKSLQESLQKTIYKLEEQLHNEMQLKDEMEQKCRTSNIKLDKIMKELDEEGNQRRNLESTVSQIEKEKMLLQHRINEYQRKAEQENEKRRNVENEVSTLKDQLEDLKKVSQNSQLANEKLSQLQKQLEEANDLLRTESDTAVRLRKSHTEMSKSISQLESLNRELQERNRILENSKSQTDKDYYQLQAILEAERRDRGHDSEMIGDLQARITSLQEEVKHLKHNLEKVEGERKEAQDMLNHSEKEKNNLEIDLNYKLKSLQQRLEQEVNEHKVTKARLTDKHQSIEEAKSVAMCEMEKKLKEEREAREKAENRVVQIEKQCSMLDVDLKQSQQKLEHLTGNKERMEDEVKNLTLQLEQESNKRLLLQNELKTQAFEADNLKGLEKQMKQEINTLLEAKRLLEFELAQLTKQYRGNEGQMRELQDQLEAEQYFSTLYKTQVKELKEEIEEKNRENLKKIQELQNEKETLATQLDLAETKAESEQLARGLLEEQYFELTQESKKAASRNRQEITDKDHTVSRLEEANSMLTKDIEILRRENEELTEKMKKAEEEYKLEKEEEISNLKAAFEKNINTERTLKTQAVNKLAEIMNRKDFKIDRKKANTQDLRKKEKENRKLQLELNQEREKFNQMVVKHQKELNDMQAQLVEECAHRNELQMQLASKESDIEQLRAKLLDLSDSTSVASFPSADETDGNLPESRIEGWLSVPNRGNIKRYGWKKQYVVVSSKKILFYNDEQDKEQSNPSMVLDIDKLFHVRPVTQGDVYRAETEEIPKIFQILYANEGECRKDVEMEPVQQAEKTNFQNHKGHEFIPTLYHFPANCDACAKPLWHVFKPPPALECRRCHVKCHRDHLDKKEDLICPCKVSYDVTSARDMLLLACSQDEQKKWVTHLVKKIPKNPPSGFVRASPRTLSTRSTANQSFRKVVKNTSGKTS

CYP2D6 = CYP2D6 (Homo sapiens, UniProt P10635); experiment: Inhibition of CYP2D6 at 10 uM; type: ADME
CYP2D6, sequence (P10635 whole entry): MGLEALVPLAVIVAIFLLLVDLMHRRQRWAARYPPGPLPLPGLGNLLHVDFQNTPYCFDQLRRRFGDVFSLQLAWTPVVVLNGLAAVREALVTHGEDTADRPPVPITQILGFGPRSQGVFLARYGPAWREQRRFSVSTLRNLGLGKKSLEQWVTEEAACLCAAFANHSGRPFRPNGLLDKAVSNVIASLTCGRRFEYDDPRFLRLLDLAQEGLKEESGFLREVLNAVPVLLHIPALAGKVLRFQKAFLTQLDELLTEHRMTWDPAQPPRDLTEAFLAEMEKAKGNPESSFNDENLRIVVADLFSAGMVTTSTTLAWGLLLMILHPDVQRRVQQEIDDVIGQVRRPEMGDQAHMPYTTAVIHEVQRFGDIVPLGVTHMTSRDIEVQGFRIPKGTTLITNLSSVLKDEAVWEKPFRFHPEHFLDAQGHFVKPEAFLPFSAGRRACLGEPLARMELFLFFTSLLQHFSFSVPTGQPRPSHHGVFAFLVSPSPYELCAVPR

[12] = biological target: T1, Serine/threonine-protein kinase LATS2 (Homo sapiens) (UniProt Q9NRM7); experiment: Inhibition of Lats2 at 3 uM
T1 sequence (whole entry): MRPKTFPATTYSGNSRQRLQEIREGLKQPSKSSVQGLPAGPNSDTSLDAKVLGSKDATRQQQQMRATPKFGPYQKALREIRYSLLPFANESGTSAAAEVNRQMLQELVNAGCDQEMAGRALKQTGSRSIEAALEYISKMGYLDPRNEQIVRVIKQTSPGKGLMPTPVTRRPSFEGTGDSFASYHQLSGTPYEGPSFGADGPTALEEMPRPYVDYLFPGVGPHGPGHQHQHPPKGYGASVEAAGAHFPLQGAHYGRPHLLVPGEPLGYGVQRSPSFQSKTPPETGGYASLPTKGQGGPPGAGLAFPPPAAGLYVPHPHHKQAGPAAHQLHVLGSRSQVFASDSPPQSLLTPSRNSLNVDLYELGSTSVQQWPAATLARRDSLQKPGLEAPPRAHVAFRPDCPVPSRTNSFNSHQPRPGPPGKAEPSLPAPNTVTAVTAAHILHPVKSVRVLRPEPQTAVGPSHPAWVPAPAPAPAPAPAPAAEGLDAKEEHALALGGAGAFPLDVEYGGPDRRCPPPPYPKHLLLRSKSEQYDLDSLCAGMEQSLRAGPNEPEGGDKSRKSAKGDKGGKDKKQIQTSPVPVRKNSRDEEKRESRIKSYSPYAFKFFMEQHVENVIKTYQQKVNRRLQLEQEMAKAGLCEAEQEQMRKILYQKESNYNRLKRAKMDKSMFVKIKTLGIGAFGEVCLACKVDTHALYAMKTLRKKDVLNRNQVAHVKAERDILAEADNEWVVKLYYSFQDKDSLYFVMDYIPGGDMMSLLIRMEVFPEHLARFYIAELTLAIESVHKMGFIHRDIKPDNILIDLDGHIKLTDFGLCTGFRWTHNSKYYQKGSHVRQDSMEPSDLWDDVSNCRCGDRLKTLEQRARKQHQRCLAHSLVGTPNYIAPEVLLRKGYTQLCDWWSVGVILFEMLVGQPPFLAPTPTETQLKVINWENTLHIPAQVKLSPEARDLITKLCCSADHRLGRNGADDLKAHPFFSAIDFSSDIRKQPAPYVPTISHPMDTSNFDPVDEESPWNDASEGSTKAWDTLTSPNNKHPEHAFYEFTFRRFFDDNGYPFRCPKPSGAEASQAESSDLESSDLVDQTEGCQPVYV

[13] = biological target: Serine/threonine-protein kinase 33 (Homo sapiens) (UniProt Q9BYT3); experiment: Inhibition of STK33 at 3 uM
CYP1A2 = biological target: T2, CYP1A2 (Homo sapiens, UniProt P05177); experiment: Inhibition of CYP1A2 at 10 uM; type: ADME
T2 sequence (P05177 whole entry): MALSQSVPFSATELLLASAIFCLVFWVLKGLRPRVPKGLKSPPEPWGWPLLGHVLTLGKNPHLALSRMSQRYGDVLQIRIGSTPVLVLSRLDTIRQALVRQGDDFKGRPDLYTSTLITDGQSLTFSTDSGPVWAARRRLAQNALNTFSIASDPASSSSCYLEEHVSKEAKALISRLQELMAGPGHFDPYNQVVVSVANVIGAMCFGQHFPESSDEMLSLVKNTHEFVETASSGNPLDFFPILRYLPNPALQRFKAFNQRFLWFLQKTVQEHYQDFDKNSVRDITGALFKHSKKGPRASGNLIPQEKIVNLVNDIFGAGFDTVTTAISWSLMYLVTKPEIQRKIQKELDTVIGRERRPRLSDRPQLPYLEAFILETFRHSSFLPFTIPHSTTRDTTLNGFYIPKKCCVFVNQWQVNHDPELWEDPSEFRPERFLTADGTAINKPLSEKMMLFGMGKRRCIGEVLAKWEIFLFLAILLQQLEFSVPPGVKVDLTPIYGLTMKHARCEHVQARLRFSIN

[14] = biological target: Dual specificity protein kinase CLK4 (Homo sapiens) (UniProt Q9HAZ1); experiment: Inhibition of CLK4 at 3 uM
[15] = biological target: Mitogen-activated protein kinase 10 (Homo sapiens, UniProt P53779)
Mitogen-activated protein kinase 10, sequence (P53779 whole entry): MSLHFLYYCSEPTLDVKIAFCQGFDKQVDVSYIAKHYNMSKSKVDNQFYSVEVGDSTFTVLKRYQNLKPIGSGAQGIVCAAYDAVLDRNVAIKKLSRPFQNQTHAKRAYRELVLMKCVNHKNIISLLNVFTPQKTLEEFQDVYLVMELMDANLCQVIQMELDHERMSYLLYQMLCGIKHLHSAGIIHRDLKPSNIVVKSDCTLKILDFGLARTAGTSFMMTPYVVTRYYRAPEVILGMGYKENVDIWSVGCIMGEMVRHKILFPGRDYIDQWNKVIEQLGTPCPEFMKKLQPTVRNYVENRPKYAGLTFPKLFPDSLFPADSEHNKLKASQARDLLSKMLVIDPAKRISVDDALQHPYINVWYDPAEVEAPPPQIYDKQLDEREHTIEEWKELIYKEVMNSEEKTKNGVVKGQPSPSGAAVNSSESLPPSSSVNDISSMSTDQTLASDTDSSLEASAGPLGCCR

[16] = biological target: Serine/threonine-protein kinase MRCK alpha (Homo sapiens, UniProt Q5VT25); experiment: Inhibition of MRCKalpha
[17] = Cmax in rat at 2 mg/kg, po; type: ADME, organism-based; set-up: dose 2 mg/kg, route oral; conditions: in vivo

Compound `N[C@H](Cc1cccc(F)c1)C(=O)Nc1ccc(-c2cn[nH]c2)cc1` has a half-life (in vitro) of 1.12 h.

For `CCN1Cc2ccc(OC)cc2C[C@@H]1C(=O)Nc1cc(F)c(-c2cn[nH]c2)cc1OCCN(C)C`, the half-life [1] was 1.7 h, the clearance [2] was 7.8 L/h/kg and the half-life (in vitro) was 0.183 h. For the same compound, the Vd [3] was 17 L/kg and the bioavailability [4] was 0%.

`CN(C)CCOc1cc(-c2cn[nH]c2)ccc1NC(=O)[C@H]1Cc2ccccc2CN1` showed a half-life (in vitro) of 1.63 h.

`COc1ccc2c(c1)C[C@H](C(=O)Nc1ccc(-c3cn[nH]c3)cc1SCCN(C)C)NC2` showed a half-life (in vitro) of 0.367 h.

For `COc1cccc2c1CNC(C(=O)Nc1ccc(-c3cn[nH]c3)cc1OCCN(C)C)C2` (racemic), the IC50 [5] was 0.261 µM.

In the case of `COc1ccc2c(c1)C[C@H](C(=O)Nc1ccc(-c3cn[nH]c3)cc1SCCC(=O)N(C)C)NC2`, the half-life (in vitro) is reported as 0.05 h.

`CN(C)CCOc1cc(-c2cn[nH]c2)c(F)cc1NC(=O)[C@H]1Cc2ccccc2CN1CC1CC1` showed a half-life [1] of 2.3 h, a clearance [2] of 2.52 L/h/kg and a half-life (in vitro) of 0.05 h. For the same compound, the Vd [3] was 7 L/kg and the bioavailability [4] was 0%.

Compound `COc1ccc2c(c1)CN[C@@H](C(=O)Nc1ccc(-c3cn[nH]c3)cc1OCCN(C)C)C2` has an IC50 [5] of 0.85 µM.

`CN(C)CCOc1cc(-c2cn[nH]c2)ccc1NC(=O)[C@H]1Cc2cc(Cl)ccc2CN1` showed a half-life (in vitro) of 2.02 h.

`COc1ccc2c(c1)C[C@H](C(=O)Nc1ccc(-c3cn[nH]c3)cc1OCC1CCN(C)CC1)NC2` gave an inhibition [6] of 77%, an inhibition [7] of 74% and a half-life [1] of 3.4 h. For the same compound, the clearance [2] was 2.46 L/h/kg, the inhibition at 10 µM (CYP3A4) was 15% and the Activity (Rattus norvegicus) was “Active”. The inhibition at 10 µM (CYP2C9) was 45%, the IC50 [8] was > 20 µM and the inhibition [9] was 72%. It also gave an inhibition [10] of 86%, a half-life (in vitro) of 1.02 h and an IC50 [11] of 0.01 µM. For the same compound, the inhibition at 10 µM (CYP2D6) was 52%, the Vd [3] was 9.5 L/kg and the inhibition [12] was 75%. For the same compound, the inhibition [13] was 66%, the inhibition at 10 µM (CYP1A2) was 3% and the inhibition [14] was 91%. For the same compound, the IC50 [15] was > 20 µM, the bioavailability [4] was 0% and the IC50 [16] was 0.669 µM.

In the case of `COc1ccc2c(c1)C[C@H](C(=O)Nc1ccc(-c3cn[nH]c3)cc1)NC2`, the IC50 [5] is reported as 0.334 µM.

With `COCCOc1cc(-c2cn[nH]c2)ccc1NC(=O)[C@H]1Cc2cc(OC)ccc2CN1` the half-life (in vitro) was 0.717 h.

With `CN(C)CCOc1cc(-c2cn[nH]c2)c(F)cc1NC(=O)[C@H]1Cc2ccccc2CN1` the half-life [1] was 2.7 h, the clearance [2] was 6.36 L/h/kg and the inhibition at 10 µM (CYP3A4) was 18%. The inhibition at 10 µM (CYP2C9) was 62%, the IC50 [8] was > 20 µM and the half-life (in vitro) was 0.75 h. For the same compound, the IC50 [11] was 0.033 µM, the inhibition at 10 µM (CYP2D6) was 77% and the Vd [3] was 24 L/kg. For the same compound, the inhibition at 10 µM (CYP1A2) was 31%, the Cmax [17] was 0.018 µM and the IC50 [15] was > 20 µM. The bioavailability [4] was 16% and the IC50 [16] was 0.333 µM.

For `NC(C(=O)Nc1ccc(-c2cn[nH]c2)cc1)c1ccc(Cl)cc1` (configuration not stated), the half-life (in vitro) was 1.4 h.

Compound `COc1ccc2c(c1)C[C@H](C(=O)Nc1c(F)cc(-c3cn[nH]c3)cc1OCCN(C)C)NC2` has a half-life (in vitro) of 1.87 h.

For `CCN1Cc2ccccc2C[C@@H]1C(=O)Nc1cc(F)c(-c2cn[nH]c2)cc1OCCN(C)C`, the inhibition at 10 µM (CYP3A4) was 39%, the inhibition at 10 µM (CYP2C9) was 70% and the IC50 [8] was > 20 µM. The half-life (in vitro) was 0.0167 h, the IC50 [11] was 0.016 µM and the inhibition at 10 µM (CYP2D6) was 52%. The inhibition at 10 µM (CYP1A2) was -24%, the IC50 [15] was > 20 µM and the IC50 [16] was 0.81 µM.

Work on `COc1ccc2c(c1)C[C@H](C(=O)Nc1ccc(-c3cn[nH]c3)cc1OCCN1CCCC1)NC2` yielded a half-life (in vitro) of 1.05 h.

With `COc1ccc2c(c1)C[C@H](C(=O)Nc1ccc(-c3c[nH]nc3C)cc1SCCN(C)C)NC2` the half-life (in vitro) was 0.183 h.

Compound `CN(C)CCOc1cc(-c2cn[nH]c2)c(F)cc1NC(=O)[C@H]1Cc2ccccc2CN1C` has a half-life (in vitro) of 0.267 h.

For `COc1ccc2c(c1)C[C@H](C(=O)Nc1ccc(-c3cn[nH]c3)c(F)c1OCCN(C)C)NC2`, the half-life (in vitro) was 1.2 h.

With `COc1ccc2c(c1)C[C@H](C(=O)Nc1ccc(-c3cn[nH]c3)cc1OC1CCN(C)CC1)NC2` the half-life (in vitro) was 1.73 h.

With `COc1ccc2c(c1)C[C@@H](C(=O)Nc1ccc(-c3cn[nH]c3)cc1OCCN(C)C)NC2` the half-life (in vitro) was 1.68 h.

In the case of `COc1ccc2c(c1)C[C@H](C(=O)Nc1ccc(-c3cn[nH]c3)cc1OCCN(C)C)NC2`, the half-life [1] is reported as 5.5 h, the clearance [2] is reported as 1.02 L/h/kg and the inhibition at 10 µM (CYP3A4) is reported as -3%. The inhibition at 10 µM (CYP2C9) was 31%, the IC50 [8] was > 20 µM and the IC50 [11] was 0.048 µM. For the same compound, the inhibition at 10 µM (CYP2D6) was 40%, the Vd [3] was 7.2 L/kg and the inhibition at 10 µM (CYP1A2) was 21%. The Cmax [17] was 0.242 µM, the IC50 [15] was > 20 µM and the bioavailability [4] was 28%. For the same compound, the IC50 [16] was 5.35 µM.

Work on `CCOc1ccc2c(c1)CC(C(=O)Nc1ccc(-c3cn[nH]c3)cc1OCCN(C)C)NC2` (racemic) yielded an IC50 [5] of 0.156 µM.

`CN(C)CCOc1cc(-c2cn[nH]c2)ccc1NC(=O)[C@@H]1Cc2cc(Cl)ccc2CN1` gave a half-life (in vitro) of 0.283 h.

For `CN(C)CCOc1cc(-c2cn[nH]c2)c(F)cc1NC(=O)[C@H]1Cc2ccccc2CN1C(=O)CN(C)C`, the IC50 [5] was 0.775 µM and the half-life (in vitro) was 0.233 h.

For `CN(C)CCOc1cc(-c2cn[nH]c2)ccc1NC(=O)C1NCCc2ccccc21` (configuration not stated), the half-life (in vitro) was 0.233 h.

Compound `CN(C)CCOc1cc(-c2cn[nH]c2)ccc1NC(=O)[C@@H]1Cc2ccccc2CN1` has a half-life (in vitro) of 1.63 h.

`NC(Cc1ccc(Cl)cc1)C(=O)Nc1ccc(-c2cn[nH]c2)cc1` (configuration not stated) gave a half-life (in vitro) of 1.12 h.

In the case of `COc1ccc2c(c1)C[C@H](C(=O)Nc1cc(F)c(-c3cn[nH]c3)cc1OCCN(C)C)NC2`, the half-life [1] is reported as 1.5 h, the clearance [2] is reported as 0.276 L/h/kg and the half-life (in vitro) is reported as 0.85 h. The Vd [3] was 0.49 L/kg, the Cmax [17] was 0.032 µM and the bioavailability [4] was 0.3%.
